Data as given in ChEMBL document CHEMBL3352647, “Synthesis and characterization of novel 1,2-oxazine-based small molecules that targets acetylcholinesterase” (Bioorg Med Chem Lett, 2014).
pIC50: −log10 of the molar value. Blank lines part the entries; values can stand above or below the compound they belong to.

Key:
[1] = Inhibition of soybean 5-LOX by spectrophotometry; design: species or system Glycine max
Acetylcholinesterase = Acetylcholinesterase (Homo sapiens, UniProt P22303); assay: Inhibition of AChE (unknown origin) using ACh chloride as substrate preincubated for 15 mins before substrate addition by Ellman method
Sequence of Acetylcholinesterase (P22303 whole entry): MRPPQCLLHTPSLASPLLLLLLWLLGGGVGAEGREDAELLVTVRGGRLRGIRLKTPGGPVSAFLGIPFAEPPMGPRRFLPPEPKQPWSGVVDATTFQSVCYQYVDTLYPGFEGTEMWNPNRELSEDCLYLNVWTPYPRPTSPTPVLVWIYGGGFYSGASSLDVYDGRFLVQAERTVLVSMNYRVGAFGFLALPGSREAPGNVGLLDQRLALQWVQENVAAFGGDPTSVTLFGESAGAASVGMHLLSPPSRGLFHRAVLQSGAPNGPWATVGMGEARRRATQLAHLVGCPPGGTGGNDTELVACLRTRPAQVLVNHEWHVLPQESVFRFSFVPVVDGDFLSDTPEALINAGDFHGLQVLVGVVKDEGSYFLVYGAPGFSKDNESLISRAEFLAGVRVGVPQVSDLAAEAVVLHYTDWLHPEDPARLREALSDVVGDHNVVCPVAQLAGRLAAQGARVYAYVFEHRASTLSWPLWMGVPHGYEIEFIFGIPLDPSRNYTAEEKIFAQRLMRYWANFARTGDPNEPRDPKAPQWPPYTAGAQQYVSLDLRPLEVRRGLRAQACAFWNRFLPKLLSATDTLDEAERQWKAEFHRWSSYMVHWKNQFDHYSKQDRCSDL

Structure (SMILES): COC(=O)C(CC1=C(c2ccc(OC)cc2)CC(C)(C)ON1C(C)=O)C(=O)OC
pIC50 [1]: 5.91
pIC50 (Acetylcholinesterase): 4.84

Structure (SMILES): COC(=O)C(CC1=C(c2ccc(Cl)cc2)CC(C)(C)ON1C(C)=O)C(=O)OC
pIC50 (Acetylcholinesterase): 4.33

Structure (SMILES): COC(=O)CC1=NO[C@@H]2CCCC[C@@H]2[C@H]1c1ccccc1
pIC50 [1]: 4.79
pIC50 (Acetylcholinesterase): 4.45

pIC50 [1]: 4.47
Structure (SMILES): COC(=O)C(CC1=NO[C@@H]2CCCC[C@@H]2[C@H]1c1ccc(OC)cc1)C(=O)OC

Structure (SMILES): COC(=O)C(CC1=C(c2ccccc2)CC(C)(C)ON1C(C)=O)C(=O)OC
pIC50 [1]: 5.20
pIC50 (Acetylcholinesterase): 4.92

Structure (SMILES): COC(=O)CC1=NO[C@@H]2[C@H]3CC[C@H](C3)[C@@H]2[C@H]1c1ccccc1
pIC50 [1]: 4.78
pIC50 (Acetylcholinesterase): 5.20

Structure (SMILES): CC(=O)N1OC(C)(C)CC(c2ccccc2)=C1CN1C(=O)c2ccccc2C1=O
pIC50 [1]: 5.73
pIC50 (Acetylcholinesterase): 5.60

pIC50 [1]: 4.17
Structure (SMILES): COC(=O)C(CC1=NOC(C)(C)C[C@H]1c1ccc(OC)cc1)C(=O)OC

Structure (SMILES): CC1(C)C[C@@H](c2ccccc2)C(CN2C(=O)c3ccccc3C2=O)=NO1
pIC50 [1]: 4.52
pIC50 (Acetylcholinesterase): 4.18

Structure (SMILES): COC(=O)C(CC1=NO[C@@H]2CCCC2[C@H]1c1ccccc1)C(=O)OC (single isomer, unassigned)
pIC50 [1]: 4.09
pIC50 (Acetylcholinesterase): 4.12

pIC50 [1]: 4.68
Structure (SMILES): COC(=O)C(CC1=NO[C@@H]2[C@@H]3CC[C@@H](C3)[C@@H]2[C@H]1c1ccccc1)C(=O)OC
